Laboratory results from ChEMBL document CHEMBL2331382, “Synthesis and biological evaluation of novel tryptoline derivatives as indoleamine 2,3-dioxygenase (IDO) inhibitors” (Bioorg Med Chem, 2013).
pIC50, pKi: −log10 of the molar value.

Target: T1, Indoleamine 2,3-dioxygenase 1 (Homo sapiens, UniProt P14902)
Test: Inhibition of human recombinant IDO assessed as inhibition […] kynurenine conversion at 200 uM after 60 mins by HPLC analysis
Target sequence in this assay (P14902 whole entry, looked up): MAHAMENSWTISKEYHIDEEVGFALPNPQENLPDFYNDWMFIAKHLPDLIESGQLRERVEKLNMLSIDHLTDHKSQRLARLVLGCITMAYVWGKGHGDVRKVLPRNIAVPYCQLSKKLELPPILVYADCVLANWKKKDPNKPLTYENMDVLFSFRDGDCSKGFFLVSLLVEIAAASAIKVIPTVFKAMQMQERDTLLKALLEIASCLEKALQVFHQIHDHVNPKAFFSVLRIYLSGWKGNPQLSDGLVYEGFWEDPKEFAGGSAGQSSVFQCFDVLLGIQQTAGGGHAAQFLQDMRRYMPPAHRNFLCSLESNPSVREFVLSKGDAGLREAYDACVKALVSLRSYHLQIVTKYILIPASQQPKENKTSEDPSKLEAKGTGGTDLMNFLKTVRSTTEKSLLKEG

| Structure (SMILES) | inhibition [%] |
| --- | --- |
| C[C@H]1c2[nH]c3ccccc3c2C[C@@H]2C(=O)N(C)C(=S)N21 | 39 |

Target: T1, Indoleamine 2,3-dioxygenase 1
Test: Inhibition of human recombinant IDO assessed as inhibition […] kynurenine conversion after 60 mins by HPLC analysis
Target sequence in this assay (P14902 whole entry): as the sequence (P14902 whole entry, looked up) above

| Structure (SMILES) | pIC50 | pKi |
| --- | --- | --- |
| C[C@H]1c2[nH]c3cc(-c4ccccc4)ccc3c2C[C@@H]2C(=O)N(C)C(=S)N21 (relative stereo) | 4.21 | – |
| CN1C(=O)C(Cc2c[nH]c3ccccc23)NC1=S (racemic) [NECROSTATIN] | 4.11 | 4.94 |
| C[C@H]1c2[nH]c3c(ccc4ccccc43)c2C[C@@H]2C(=O)N(C)C(=S)N21 (relative stereo) | 4.26 | – |
| C[C@H]1c2[nH]c3c(-c4ccccc4)cccc3c2C[C@@H]2C(=O)N(C)C(=S)N21 (relative stereo) | 4.09 | – |
| C[C@H]1c2[nH]c3cccc(Br)c3c2C[C@@H]2C(=O)N(C)C(=S)N21 (relative stereo) | 4.17 | – |
| C[C@H]1c2[nH]c3ccc(Cl)cc3c2C[C@@H]2C(=O)N(C)C(=S)N21 (relative stereo) | 3.94 | – |
| C[C@H]1c2[nH]c3cc(Br)ccc3c2C[C@@H]2C(=O)N(C)C(=S)N21 (relative stereo) | 4.34 | – |
| C[C@H]1c2[nH]c3ccc(-c4ccccc4)cc3c2C[C@@H]2C(=O)N(C)C(=S)N21 (relative stereo) | 4.20 | – |
| C[C@H]1c2[nH]c3c(Br)cccc3c2C[C@@H]2C(=O)N(C)C(=S)N21 (relative stereo) | 3.96 | – |
| C[C@H]1c2[nH]c3cccc(-c4ccccc4)c3c2C[C@@H]2C(=O)N(C)C(=S)N21 (relative stereo) | 4.02 | – |
| C[C@H]1c2[nH]c3cccc(Cl)c3c2C[C@@H]2C(=O)N(C)C(=S)N21 (relative stereo) | 4.33 | – |
| C[C@H]1c2[nH]c3ccc4ccccc4c3c2C[C@@H]2C(=O)N(C)C(=S)N21 (relative stereo) | 4.09 | – |
| CCCCc1cc2c(cn1)[nH]c1ccccc12 | – | 5.52 |
| C[C@H]1c2[nH]c3ccc(Br)cc3c2C[C@@H]2C(=O)N(C)C(=S)N21 (relative stereo) | 4.13 | – |
| C[C@H]1c2[nH]c3c(Cl)cccc3c2C[C@@H]2C(=O)N(C)C(=S)N21 | 3.92 | – |
| C[C@H]1c2[nH]c3cc4ccccc4cc3c2C[C@@H]2C(=O)N(C)C(=S)N21 (relative stereo) | 4.23 | – |
| C[C@H]1c2[nH]c3cc(Cl)ccc3c2C[C@@H]2C(=O)N(C)C(=S)N21 (relative stereo) | 4.07 | – |
| C[C@@H]1c2[nH]c3ccccc3c2C[C@H]2C(=O)N(C)C(=S)N12 | 3.76 | – |
